In publication PMC3316526, “Modulation of γ-Secretase Activity by Multiple Enzyme-Substrate Interactions: Implications in Pathogenesis of Alzheimer's Disease” (PLoS ONE, 2012):

Tests used:
[1] = tested on: γ-secretase; assay: γ-Secretase reaction premixed with synthetic Aβ peptides (AICD production, urea gels of Aβ products); format: biochemical; conditions: for effect on the rate of AICD production: extremely high concentrations of synthetic peptide, half-saturating C99 (0.45 µM); for effect on relative difference between Aβ 1–40, Aβ 1–42 and the longer Aβ products: reaction premixed with 10 nM synthetic peptide, urea gels, [C99] = 0.45 µM, 4 hours
Experimental: Figure 7 γ-Secretase is not affected by Aβ peptides present in free solution. (A) The lanes labeled as “free reaction” represent Aβ products after 4 hours of routine γ-secretase reaction at half saturating C99 substrate ([C99] = 0.45 µM). The lanes labeled as “+10 nM Aβ 1–42” and “+10 nM Aβ 1–40” represent “free reaction” premixed with synthetic Aβ 1–42 or Aβ 1–40 in a concentration equivalent that corresponds to 4 hours of free reaction. The lanes labeled “+21F12” and “+2G6” represent “free reaction” that was premixed with antibodies specific for Aβ42 or Aβ40 respectively. Both 2G6 and 21F12 antibodies bind the matching Aβ peptides very efficiently as indicated by a complete removal of the corresponding Aβ bands in the reactions with protein G beads (samples labeled as “21F12 and prot. G” and “2G6 and prot. G”). The lane “Aβ std 1-x” represents synthetic peptides as mobility standards. (B) AICD production was measured at half-saturating C99 substrate (0.45 µM) in assays that were premixed with increasing concentrations of synthetic Aβ 1–38, Aβ 1–40, Aβ 1–42, or Aβ 1–44.
(§1) γ-Secretase assays using CHAPSO enriched membranes were performed essentially as earlier described, [37], [48], [89]. Briefly, microsomal fractions (protein concentration 10 mg/ml) from different MEF cells were solubilized in 1% CHAPSO buffer (50 mM Pipes, pH 7.0, 0.25 M sucrose, 1 mM EGTA, 1×Complete protease inhibitor mixture (Roche)) and incubated on ice for 1 h. CHAPSO was always prepared as 1% w/v fresh from a powder stock that was less than 6 months old and kept at 4°C (freshness is crucial for high activity). Next, the membrane-solubilized protein fractions were obtained as supernatant by ultracentrifugation for 1 hour at 100,000×g. The prepared CHAPSO enriched membranes were diluted two fold with 50 mM Pipes pH = 7.0, 0.25 M sucrose, 1 mM EGTA, 0.1% phosphatidylcholine, and 0.0125% phosphatidylethanolamine, plus 1×Complete protease inhibitor mixture (Roche), and left on 37°C for two to three hours. This incubation can increase the measured activity by up to 70% since it can accommodate slow reassembly of γ-secretase components that is induced by the transition from 1% CHAPSO to 0.25% CHAPSO [90]. The reactions were started by adding C99 substrate in desired concentration, the added volume was adjusted so that: i) the final CHAPSO concentration was 0.25%; ii) and final concentration of membrane proteins was 0.25 mg/ml. Fresh C99 substrate that is used immediately after purification gives the best opportunity to observe described enzymatic features and the highest activity. The assay mix was prepared in low adhesion microcentrifuge tubes, the volume was usually 25 µL. To increase sensitivity in early data points detection, and at low enzyme saturation, the assay volume was increased up to 400 µL, and the resulting reaction products were concentrated by immunoprecipitation before the gels were loaded. The reaction mix was incubated at 37°C, the time was optimized for each experiment. The AICD production remains linear for 6 hours at saturating substrate. The reaction specificity was confirmed by running identical parallel reactions that have been saturated with inhibitors specific for γ-secretase; 10 µM LY-411,575 and 10 µM DAPT [3], [4].
(§2) AICD assays using western-blots with anti-flag αM2 monoclonal antibody, or 125-I labelled C99 autoradiography were performed as earlier described, [37]. To keep the C99 bands visible on gels in difference to the previous studies the reaction aliquots were not subjected to methanol /chloroform extraction. Briefly, the samples were separated on Nu-PAGE 12% Bis/Tris/MES/SDS-page gels (Invitrogen) at 150 V for 55 min. For 125-I-C99 assays the gels were dried and exposed for 1–2 hours to europium intensifying screens for autoradiography. […]

[2] = biological target: T1, γ-secretase carrying WT presenilin 1 (Homo sapiens, UniProt P49768); assay: Inhibition of total AICD production, CHAPSO enriched γ-secretase membranes, WT presenilin 1; format: biochemical; conditions: best fit ± standard error, eqn. 3; for IC50: total AICD production, western blot
T1 construct: expressed in transfected cells; host or cells: MEF double knockout for endogenous presenilin, transduced; CHAPSO-solubilised microsomal membranes
Experimental: (§3) Figure 9 Inhibition of WT presenilin 1 and FAD mutants by DAPT and L-685,458. CHAPSO enriched γ-secretase membranes carrying WT presenilin 1 or FAD mutations ΔE9 and G384A have been prepared and analyzed in parallel with all conditions identical. The dose response curves for DAPT [71] and L-685,458 [15] were measured by following total AICD production using western-blots with αM2 antiflag antibody as shown in Fig. 3. The results were analyzed using nonlinear regression and the equation 3 (methods).
(§4) MEF cells, or MEF double knockout for endogenous presenilin transduced with human WT, dE9 and G384A presenilin 1 [85], were grown to confluence, scraped, and collected in pellets by centrifugation at 1000×g for 5 min. The cell pellets were re-suspended in 20 mM Pipes pH = 7.0, 140 mM KCl, 0.25 M sucrose, 5 mM EGTA, plus 1X Roche protease inhibitors cocktail, so that the total protein concentration was 10 mg/ml. Re-suspended cells were subjected to more than 20 passages in 8.010 mm cell-cracker. The resulting cell extract was subjected to 10 min centrifugation on 2000×g to remove large debris, and the fragmented membranes were collected as pellets after centrifugation for 1 hour at 100 000×g, and stored at −80°C.
as §1, with “The assay mix was prepared in low adhesion microcentrifuge tubes, the volume was usually 25 µL. To increase sensitivity in early data points detection, and at low enzyme saturation, the assay volume was increased up to 400 µL, and the resulting reaction products were concentrated by immunoprecipitation before the gels were loaded. The reaction mix was incubated at 37°C, the time was optimized for each experiment. The AICD production remains linear for 6 hours at saturating substrate. The reaction specificity was confirmed by running identical parallel reactions that have been saturated with inhibitors specific for γ-secretase; 10 µM LY-411,575 and 10 µM DAPT [3], [4].” left out

[3] = tested on: γ-secretase carrying presenilin 1 FAD mutation ΔE9; assay: Inhibition of total AICD production, CHAPSO enriched γ-secretase membranes, FAD mutant ΔE9; format: biochemical, human; conditions: for Hill's coef. / IC50: ΔE9 presenilin 1, best fit ± standard error, eqn. 3; for IC50: total AICD production, western blot; for decrease in inhibition potency relative to the WT: ΔE9 vs WT presenilin 1
Experimental: as §3, §4, §1, §2

[4] = biological target: T2, γ-secretase carrying presenilin 1 FAD mutation G384A (Homo sapiens, UniProt P49768, G384A); assay: Inhibition of total AICD production, CHAPSO enriched γ-secretase membranes, FAD mutant G384A; format: biochemical; conditions: for decrease in inhibition potency relative to the WT: G384A vs WT presenilin 1
T2 construct: expressed in transfected cells; host or cells: MEF double knockout for endogenous presenilin, transduced; CHAPSO-solubilised microsomal membranes
Experimental: as §3, §4
as §1, with “[4]. […]” for “[4].”

[5] = tested on: γ-secretase; assay: Michaelis-Menten profiles for AICD, Aβ 1–40 and Aβ 1–42 in presence of DAPT; format: biochemical; conditions: enzyme approaching saturation with C99 substrate; DAPT 70-200 nM
Experimental: Figure 3 Michaelis-Menten profiles for AICD, Aβ 1–40 and Aβ 1–42 in presence of DAPT. CHAPSO enriched γ-secretase membranes were used to measure Michaelis-Menten profiles for total AICD production in presence of 0 nM (•), 70 nM (+) and 150 nM (O) of DAPT. Michaelis-Menten profiles for Aβ 1–40 and Aβ 1–42 production were measured in presence of 0 nM (•), 100 nM (+) and 200 nM (O) of DAPT. All profiles have been analyzed using nonlinear regression and the eqn. 4 (methods). The gel strips show different concentrations of the C99 substrate and the corresponding AICD products. […] AICD was measured using antiflag M2 antibodies (as shown in the gel strip). Aβ 1–40, and Aβ 1–42 were measured using AlphaScreen® as described in methods section.
γ-Secretase assays using CHAPSO enriched membranes were performed essentially as earlier described, [37], [48], [89]. […] This incubation can increase the measured activity by up to 70% since it can accommodate slow reassembly of γ-secretase components that is induced by the transition from 1% CHAPSO to 0.25% CHAPSO [90]. […]
AICD assays using western-blots with anti-flag αM2 monoclonal antibody, or 125-I labelled C99 autoradiography were performed as earlier described, [37]. […] Following the washes with TBS +0.1% Tween 20, the membranes were subjected to 25 nM GAMIR (MolecularProbes), washed, and read using fluorescence at […]. […]

[6] = tested on: γ-secretase; assay: Titration of γ-secretase activity in CHAPSO enriched membranes with LY-411,575; format: biochemical; conditions: total protein 0.25 mg/ml and 0.09 mg/ml
Experimental: γ-Secretase assays using CHAPSO enriched membranes were performed essentially as earlier described, [37], [48], [89]. Briefly, microsomal fractions (protein concentration 10 mg/ml) from different MEF cells were solubilized in 1% CHAPSO buffer (50 mM Pipes, pH 7.0, 0.25 M sucrose, 1 mM EGTA, 1×Complete protease inhibitor mixture (Roche)) and incubated on ice for 1 h. CHAPSO was always prepared as 1% w/v fresh from a powder stock that was less than 6 months old and kept at 4°C (freshness is crucial for high activity). Next, the membrane-solubilized protein fractions were obtained as supernatant by ultracentrifugation for 1 hour at 100,000×g. The prepared CHAPSO enriched membranes were diluted two fold with 50 mM Pipes pH = 7.0, 0.25 M sucrose, 1 mM EGTA, 0.1% phosphatidylcholine, and 0.0125% phosphatidylethanolamine, plus 1×Complete protease inhibitor mixture (Roche), and left on 37°C for two to three hours. This incubation can increase the measured activity by up to 70% since it can accommodate slow reassembly of γ-secretase components that is induced by the transition from 1% CHAPSO to 0.25% CHAPSO [90]. The reactions were started by adding C99 substrate in desired concentration, the added volume was adjusted so that: i) the final CHAPSO concentration was 0.25%; ii) and final concentration of membrane proteins was 0.25 mg/ml. […]

[7] = biological target: γ-secretase; conditions: quoted without reference; read-out: IC50 in cell-based assays; cited from earlier work
[8] = biological target: γ-secretase (CHAPSO enriched γ-secretase membranes) (not stated (endogenous mouse in MEF, or human presenilin 1 transduced) | mouse (endogenous in MEF)) (UniProt P49768)
[9] = biological target: γ-secretase (CHAPSO enriched γ-secretase membranes) (not stated (endogenous mouse in MEF, or human presenilin 1 transduced) | mouse (endogenous in MEF)) (UniProt P49768); remark: listed apart in the source
[10] = biological target: APP C99-3×FLAG (human); assay: AlphaScreen or HTRF; increasing fresh C99 incubated 3 h with 10 nM 3D6 antibody coupled to both donor and acceptor beads; signal only if C99 dimerization/oligomerization brings two epitopes together; apparent Kd from a quadratic equation specific for dimerization (dimer to monomers)
[11] = tested on: patients; parameters: method as in PMID 21222550; conditions: Phase III clinical trials; cited from earlier work
[12] = G384A presenilin 1, best fit ± standard error, eqn. 3

Compound: Aβ 1–38: synthetic Aβ 1-x standard prepared by solid phase synthesis
- effect on the rate of AICD production [1]: do not affect

Compound: C[C@H](NC(=O)Cc1cc(F)cc(F)c1)C(=O)N[C@H](C(=O)OC(C)(C)C)c1ccccc1 [DAPT, N-[N-(3,5-difluorophenacetyl)-L-alanyl]-S-phenylglycine t-butyl ester]
- Hill's coef. [2]: 0.7±0.2
- IC50 [2]: 390 ± 179 nM
- Hill's coef. [3]: 1.21±0.07
- IC50 [3]: 734 ± 254 nM
- decrease in inhibition potency relative to the WT [3]: approximately twofold
- Hill's coef. [4, 12]: 0.54±0.25
- decrease in inhibition potency relative to the WT [4]: about 1000 fold
- mode of inhibition versus C99 substrate [5]: noncompetitive inhibitor

Compound: Aβ 1–44: synthetic Aβ 1-x standard prepared by solid phase synthesis
- effect on the rate of AICD production [1]: do not affect

Compound: C[C@H](NC(=O)[C@@H](O)c1cc(F)cc(F)c1)C(=O)N[C@@H]1C(=O)N(C)c2ccccc2-c2ccccc21 [LY-411,575]
- concentration that completely abolishes γ-secretase activity [6]: 1 to 2 nM
- IC50 [7]: ~0.1 nM

Compound: NotchΔE substrate (NotchΔE-3xFLAG) (domain or fragment)
- AICD production from 125-I labeled C99 at half-saturating C99 (0.44-0.45 µM) with increasing NotchΔE substrate: activation, then inhibition only at higher NotchΔE concentrations [8]: 85%

Compound: Aβ 1–42: synthetic Aβ 1-x standard prepared by solid phase synthesis
- effect on the rate of AICD production [1]: do not affect
- effect on relative difference between Aβ 1–40, Aβ 1–42 and the longer Aβ products [1]: does not affect

Compound: Aβ 1–40: synthetic Aβ 1-x standard prepared by solid phase synthesis
- effect on the rate of AICD production [1]: do not affect
- effect on relative difference between Aβ 1–40, Aβ 1–42 and the longer Aβ products [1]: does not affect

Compound: APP C99-3×FLAG (domain or fragment)
- Y-axis intercept of the pre-steady-state burst in AICD production (3.0 µM C99, CHAPSO enriched γ-secretase membranes 0.25 mg/ml) [9]: 8.2 nM
- Kd [10]: 33 nM

Compound: CC(C)[C@H](O)C(=O)N[C@@H](C)C(=O)N[C@@H]1C(=O)N(C)CCc2ccccc21 [semagacestat]
- effect on cognitive decline in patients [11]: can accelerate the cognitive decline

Compound: CC(C)C[C@H](NC(=O)[C@H](Cc1ccccc1)C[C@@H](O)[C@H](Cc1ccccc1)NC(=O)OC(C)(C)C)C(=O)N[C@@H](Cc1ccccc1)C(N)=O [L-685,458, {1S-benzyl-4R-[1S-carbamoyl-2-phenylethylcarbamoyl-1S-3-methylbutylcarbamoyl]-2R-hydroxy-5-phenylpentyl} carbamic acid tert-butyl ester]
- Hill's coef. [2]: 1.3±0.1
- IC50 [2]: 32 ± 4 nM
- Hill's coef. [3]: 0.98± 0.08
- IC50 [3]: 707 ± 80 nM
- decrease in inhibition potency relative to the WT [3]: 10–20 fold
- Hill's coef. [4, 12]: 1±0.13
- IC50 ([4]; G384A presenilin 1, total AICD production, western blot, best fit ± standard error, eqn. 3): 398 ± 51 nM
- decrease in inhibition potency relative to the WT [4]: 10–20 fold
